Experimental data from ChEMBL document CHEMBL1201862, “PubChem BioAssay data set” (2004).
Activity calls are given as the source filed them.

Target: T1, Protein skinhead-1 (Caenorhabditis elegans, UniProt P34707)
T1 sequence (P34707 whole entry): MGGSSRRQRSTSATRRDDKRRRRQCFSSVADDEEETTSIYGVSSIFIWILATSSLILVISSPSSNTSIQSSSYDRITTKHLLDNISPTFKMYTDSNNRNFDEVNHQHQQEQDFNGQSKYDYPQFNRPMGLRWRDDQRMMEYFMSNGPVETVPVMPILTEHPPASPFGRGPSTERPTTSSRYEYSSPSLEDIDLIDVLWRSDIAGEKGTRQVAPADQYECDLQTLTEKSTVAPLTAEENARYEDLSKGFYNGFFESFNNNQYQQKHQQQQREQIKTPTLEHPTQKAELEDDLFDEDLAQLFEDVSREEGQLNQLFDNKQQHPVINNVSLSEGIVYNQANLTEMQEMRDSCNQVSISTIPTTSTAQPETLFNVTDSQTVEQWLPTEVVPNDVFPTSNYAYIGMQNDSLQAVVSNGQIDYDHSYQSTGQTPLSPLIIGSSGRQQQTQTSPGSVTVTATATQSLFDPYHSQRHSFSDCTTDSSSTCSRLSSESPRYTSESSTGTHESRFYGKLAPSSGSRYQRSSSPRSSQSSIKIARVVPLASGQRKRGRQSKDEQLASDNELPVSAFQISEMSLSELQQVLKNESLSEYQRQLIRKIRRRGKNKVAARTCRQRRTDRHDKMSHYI
Type: functional

Q: With `CCC1CCCCN1CCN1C(=O)C2C(C(=O)Nc3ccc(OC)cc3)C3C=CC2(O3)C1C(=O)NC1CCCCC1` (stereo not drawn) as the compound, how does the IC50 read?
A: > 100 µM (inactive)

Target: T2, Short transient receptor potential channel 4 (Mus musculus, UniProt Q9QUQ5)
T2 sequence (Q9QUQ5 whole entry): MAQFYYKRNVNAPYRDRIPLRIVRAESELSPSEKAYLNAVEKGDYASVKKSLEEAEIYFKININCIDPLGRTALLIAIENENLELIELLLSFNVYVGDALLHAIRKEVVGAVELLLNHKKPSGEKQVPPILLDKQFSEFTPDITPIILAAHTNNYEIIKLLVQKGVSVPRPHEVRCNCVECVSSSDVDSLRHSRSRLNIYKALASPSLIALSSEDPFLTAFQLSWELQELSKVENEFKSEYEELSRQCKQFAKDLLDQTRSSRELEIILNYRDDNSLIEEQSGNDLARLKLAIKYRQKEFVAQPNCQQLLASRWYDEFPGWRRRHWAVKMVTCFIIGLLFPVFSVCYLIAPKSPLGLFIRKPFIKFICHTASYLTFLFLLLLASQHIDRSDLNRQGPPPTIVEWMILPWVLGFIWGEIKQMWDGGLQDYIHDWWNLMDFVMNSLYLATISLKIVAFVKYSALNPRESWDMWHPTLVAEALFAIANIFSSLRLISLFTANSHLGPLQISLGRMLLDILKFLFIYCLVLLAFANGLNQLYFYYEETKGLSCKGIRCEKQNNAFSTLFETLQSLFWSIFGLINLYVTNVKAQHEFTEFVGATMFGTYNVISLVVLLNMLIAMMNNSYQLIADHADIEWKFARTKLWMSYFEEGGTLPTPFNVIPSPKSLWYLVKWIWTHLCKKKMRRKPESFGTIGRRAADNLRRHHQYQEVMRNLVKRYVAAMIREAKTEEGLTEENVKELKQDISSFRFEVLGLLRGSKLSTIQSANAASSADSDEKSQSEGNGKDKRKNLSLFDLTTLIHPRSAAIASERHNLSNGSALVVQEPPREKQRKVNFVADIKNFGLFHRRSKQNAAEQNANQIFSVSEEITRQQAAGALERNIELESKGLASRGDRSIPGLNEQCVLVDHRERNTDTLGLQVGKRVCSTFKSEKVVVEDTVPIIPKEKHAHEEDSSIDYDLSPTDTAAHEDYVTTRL
Test: block of DAMGO-driven TRPC4 calcium entry – cell-based, HEK293 TRPC4/mu-opioid, Fluo-4 calcium, dose response (AID 434942);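 note: potency of inhibitors blocking the TRPC4 calcium response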
Type: functional

Q: How did the EC50 turn out when `COc1cccc(O)c1CN1CCCC(C(=O)c2sccc2C)C1` (stereo not drawn) was run?
A: 3.35 µM (active)

Q: With `C=CCc1ccccc1OCC(O)CN1CCN(c2ccccc2OC)CC1` (stereo not drawn) as the compound, how does the EC50 read?
A: 5.31 µM (active)

Q: `Cc1c(N)c(C(C)(C)C)cc(C(C)(C)C)c1[N+](=O)[O-]` was tested. Which EC50 did it give?
A: 4.22 µM (active)

Q: How did the EC50 turn out when `OCc1ccccc1CNCc1ccccc1` was run?
A: 2.99 µM (active)

Q: How did the EC50 turn out when `COc1ccc(C(CNC(=O)c2oc3ccc(Cl)cc3c2C)N2CCCCC2)cc1` (stereo not drawn) was run?
A: 15 µM (active)

Q: How did the EC50 turn out when `CCC1CCCCN1CCN1C(=O)C2C(C(=O)Nc3ccc(OC)cc3)C3C=CC2(O3)C1C(=O)NC1CCCCC1` (stereo not drawn) was run?
A: 0.0947 µM (active)

Q: Which EC50 does the source give for `Cc1ccc(NC(=O)CN2CCc3ccccc3C2)cc1F` here?
A: 6.68 µM (active)
